Laboratory results reported in patent publication US5405861A, “Triazole compounds and antifungal compositions thereof” (Takeda Chemical Industries, Co., Ltd., priority 1989, dated 1995).
Structures can show the parent of a compound that is named as a salt.

Experiments:
[1] = test system: Candida albicans (IFO 0538); assay: Antifungal activity against Candida albicans, paper disc growth inhibition zone (Tables 5 and 6); assay type: cell-based; settings: 28° C., 2 days incubation; for zone of inhibition at 1000 µg/mL: 48 h, pH 7, B medium (yeast nitrogen base agar, pH 7.0), read-out: Inhibition zone diameter
Description: The antifungal activities of the compounds (I) were evaluated by the following method: a sheet of filter paper disc (manufactured by Toyo Seisakusho, 8 mm in diameter) soaked in a 1000 μg/ml solution of a compound (I) in methanol was placed on an agar plate, which was incubated at 28° C. for 2 days, and the diameter of the growth inhibition zone around the filter paper disc was measured. The following culture media were used:
A: yeast nitrogen base agar medium
B: yeast nitrogen base agar medium (pH 7.0)

Candida albicans [2] = assay: Infection-preventing effect in experimental infection in mice, Method 2 (Table 7-2); assay type: in vivo, Crj:CDF1 mice; settings: po, 168 h, p.o., given just after infection, survival 7 days after infection
Description: (§1) Method 2 (Table 7-2): To 5-week-old Crj:CDF1 mice the minimum lethal dose of Candida albicans was inoculated intravenously. The test drug was given just after infection. The effectiveness of the drug was expressed in ED50 values calculated by the Reed and Muench method from the survival rate 7 days after infection. The ED50 values were calculated based on the […].

Candida albicans [3] = assay: Infection-preventing effect in experimental infection in mice, Method 1 (Table 7-1); assay type: in vivo, Crj:CDF1 mice; settings: given 0 and 2 hours after infection, survival 7 days after infection, total dose
Description: as §1, with “1” for “2”, “7-1):” for “7-2):”, “twice 0 and 2 hours” for “just”

[4] = Candida albicans, sc, 168 h, s.c., read-out: ED50
[5] = Candida albicans, po, 168 h, p.o., read-out: ED50

| Compound | zone of inhibition at 1000 µg/mL [1] | ED50 (Candida albicans [2]) | ED50 (Candida albicans [3]; [4]) | ED50 (Candida albicans [3]; [5]) | ED50 (Candida albicans [3]; s.c.) | Inhibition zone diameter ([1]; B medium (yeast nitrogen base agar, pH 7.0)) |
| --- | --- | --- | --- | --- | --- | --- |
| C[C@@H](SCc1csc(N)n1)[C@](O)(Cn1cncn1)c1ccc(F)cc1F [Compound 121] | 35 mm | 0.5 mg/kg | – | – | – | – |
| C[C@@H](SCc1csc(C2CC2)n1)[C@](O)(Cn1cncn1)c1ccc(F)cc1F [Compound 123] | 35 mm | 0.5 mg/kg | – | – | – | – |
| C[C@@H](SCc1cn2ccncc2n1)[C@](O)(Cn1cncn1)c1ccc(F)cc1F [Compound 124] | 30 mm | 0.7 mg/kg | – | – | – | – |
| Cc1csc(CS[C@H](C)[C@](O)(Cn2cncn2)c2ccc(F)cc2F)n1 [Compound 99] | 35 mm | 1.4 mg/kg | – | – | – | – |
| C[C@@H](SCc1ncc2n1CCC2)[C@](O)(Cn1cncn1)c1ccc(F)cc1F [Compound 97] | 27 mm | 0.5 mg/kg | – | – | – | – |
| Cc1ncc(CS[C@H](C)[C@](O)(Cn2cncn2)c2ccc(F)cc2F)s1 [Compound 108] | 40 mm | 1.4 mg/kg | – | – | – | – |
| Cc1nccc(CS[C@H](C)[C@](O)(Cn2cncn2)c2ccc(F)cc2F)n1 [Compound 127] | 33 mm | 2 mg/kg | – | – | – | – |
| C[C@@H](SCc1csc(C(F)(F)F)n1)[C@](O)(Cn1cncn1)c1ccc(F)cc1F [Compound 122] | 35 mm | 0.5 mg/kg | – | – | – | – |
| C[C@@H](S)[C@@](O)(Cn1cncn1)c1ccc(F)cc1F [Compound 117, (2S,3R)-2-(2,4-difluorophenyl)-3-mercapto-1-(1 H-1,2,4-triazol-1-yl)-2-butanol] | 25 mm | > 4 mg/kg | – | – | – | – |
| C[C@@H](SCc1nsc(N)n1)[C@](O)(Cn1cncn1)c1ccc(F)cc1F [Compound 128] | 30 mm | 2 mg/kg | – | – | – | – |
| C[C@@H](SCc1ncc2ncccn12)[C@](O)(Cn1cncn1)c1ccc(F)cc1F [Compound 130] | 35 mm | 0.7 mg/kg | – | – | – | – |
| C[C@H](S)[C@](O)(Cn1cncn1)c1ccc(F)cc1F [Compound 118, (2R,3S)-2-(2,4-difluorophenyl)-3-mercapto-1-(1H-1,2,4-triazol-1-yl)-2-butanol] | 33 mm | 2.8 mg/kg | – | – | – | – |
| C[C@@H](SCc1nncn1C1CC1)[C@](O)(Cn1cncn1)c1ccc(F)cc1F [Compound 114] | 15 mm | 0.4 mg/kg | – | – | – | – |
| OC(Cn1cncn1)(c1ccc(F)cc1F)C1(S)CC1 (stereo not shown) [Compound 120] | 30 mm | 0.35 mg/kg | – | – | – | – |
| C[C@@H](SCc1ccncn1)[C@](O)(Cn1cncn1)c1ccc(F)cc1F [Compound 126] | 38 mm | 2 mg/kg | – | – | – | – |
| C[C@@H](SCc1nccn1CC(F)F)[C@](O)(Cn1cncn1)c1ccc(F)cc1F [Compound 109] | 28 mm | 0.5 mg/kg | – | – | – | – |
| C[C@H](S)[C@@](O)(Cn1cncn1)c1ccc(F)cc1F [Compound 42, (2S,3S)-2-(2,4-difluorophenyl)-3-mercapto-1-(1H-1,2,4-triazol-1-yl)-2-butanol] | 34 mm | > 4 mg/kg | – | – | – | – |
| Cc1ncc(CS[C@H](C)[C@](O)(Cn2cncn2)c2ccc(F)cc2F)s1 (relative stereo) [Compound 53] | 35 mm | – | 2 mg/kg | – | – | – |
| C[C@@H](S)[C@](O)(Cn1cncn1)c1ccc(F)cc1F (racemic) [Compound 39, (2RS,3RS)-2-(2,4-difluorophenyl)-3-mercapto-1-(1H-1,2,4-triazol-1-yl)-2-butanol] | 18 mm | – | 0.19 mg/kg | 0.35 mg/kg | – | – |

| Compound | zone of inhibition at 1000 µg/mL [1] | ED50 (Candida albicans [2]) | ED50 (Candida albicans [3]; [4]) | ED50 (Candida albicans [3]; [5]) | ED50 (Candida albicans [3]; s.c.) | Inhibition zone diameter ([1]; B medium (yeast nitrogen base agar, pH 7.0)) |
| --- | --- | --- | --- | --- | --- | --- |
| C[C@@H](SCCn1cncn1)[C@](O)(Cn1cncn1)c1ccc(F)cc1F (relative stereo) [13(hydrochloride)] | 25 mm | – | 10 mg/kg | – | – | – |
| C[C@@H](SCCc1nccn1C)[C@](O)(Cn1cncn1)c1ccc(F)cc1F (racemic) [Compound 50, (2RS,3RS)-2-(2,4-difluorophenyl)-3-[2-(1-methylimidazol-2-yl)ethyl]thio-1-(1H-1,2,4-triazol-1-yl)-2-butanol] | 22 mm | – | 3.2 mg/kg | – | – | – |
| C[C@@H](SCc1cn2cccnc2n1)[C@](O)(Cn1cncn1)c1ccc(F)cc1F [Compound 125] | 33 mm | 0.5 mg/kg | – | – | – | – |
| C[C@@H](SCc1nccn1CC1CC1)[C@](O)(Cn1cncn1)c1ccc(F)cc1F (relative stereo) [Compound 51] | 28 mm | – | 2 mg/kg | – | – | – |
| C[C@@H](SCc1nccn1C)[C@](O)(Cn1cncn1)c1ccc(F)cc1F (relative stereo) [Compound 16] | 25 mm | – | 0.63 mg/kg | – | – | – |
| C[C@@H](S)[C@](O)(Cn1cncn1)c1ccc(F)cc1F [Compound 43, (2R,3R)-2-(2,4-difluorophenyl)-3-mercapto-1-(1H-1,2,4-triazol-1-yl)-2-butanol] | 40 mm | – | 0.18 mg/kg | 0.18 mg/kg | – | – |
| Cc1nc(CS[C@H](C)[C@](O)(Cn2cncn2)c2ccc(F)cc2F)cs1 [Compound 107] | 33 mm | 0.39 mg/kg | 0.71 mg/kg | < 0.5 mg/kg | – | – |
| CC(n1cncn1)C(O)(CS)c1ccc(F)cc1F (single isomer, unassigned) [Compound 116, 2-(2,4-difluorophenyl)-1-mercapto-3-[(1H)-1,2,4-triazol-1-yl]-2-butanol] | – | – | – | – | > 4.0 mg/kg | 30 mm |
| C[C@@H](SCc1nccn1C)[C@](O)(Cn1cncn1)c1ccc(F)cc1F [Compound 78] | 30 mm | 0.5 mg/kg | – | – | – | – |
| CC(C)n1ccnc1CS[C@H](C)[C@](O)(Cn1cncn1)c1ccc(F)cc1F (relative stereo) [Compound 47] | 25 mm | – | 0.7 mg/kg | – | – | – |
| CC(C)(S)C(O)(Cn1cncn1)c1ccc(F)cc1F (stereo not shown) [Compound 119] | 30 mm | 0.18 mg/kg | – | – | – | – |
| C[C@@H](SCc1cnc2cccnn12)[C@](O)(Cn1cncn1)c1ccc(F)cc1F [Compound 129] | 35 mm | 0.5 mg/kg | – | – | – | – |
| C[C@@H](SCc1cncn1C)[C@](O)(Cn1cncn1)c1ccc(F)cc1F [Compound 91] | 30 mm | < 0.25 mg/kg | – | – | – | – |
| C[C@@H](SCc1ncc2cnccn12)[C@](O)(Cn1cncn1)c1ccc(F)cc1F [Compound 112] | 30 mm | 0.5 mg/kg | – | – | – | – |
| C[C@@H](SCc1nccn1C1CC1)[C@](O)(Cn1cncn1)c1ccc(F)cc1F [Compound 110] | 40 mm | – | 0.35 mg/kg | 0.35 mg/kg | – | – |
| C[C@@H](SCc1nc2c(s1)CCC2)[C@](O)(Cn1cncn1)c1ccc(F)cc1F (relative stereo) [Compound 25] | 40 mm | – | 3.2 mg/kg | – | – | – |
| C[C@@H](SCc1ncc2n1CCC2)[C@](O)(Cn1cncn1)c1ccc(F)cc1F (relative stereo) [Compound 35] | 33 mm | – | 0.71 mg/kg | – | – | – |
| C[C@@H](SCc1ncc2cccnn12)[C@](O)(Cn1cncn1)c1ccc(F)cc1F [Compound 131] | 40 mm | 0.7 mg/kg | – | – | – | – |
